Laboratory results reported in US9669016B2, “Antiparasitic effect of Bis[3,5-Bis(Benzylidene)-4-Oxo-1-Piperidinyl]amide Derivatives” (priority 2014, dated 2017).
Where two headings read alike, the source gives them in different places.

What was measured:
[1] = test system: L. major metacyclic promastigotes; experiment: Murine model for cutaneous leishmaniasis (footpad infection); format: in vivo, BALB/c mice; details: for footpad swelling: 10^5 L. major metacyclic promastigotes, intraperitoneal daily treatment
Description: (§1) The in vivo experiments were comprised of four groups of five mice each: (1) infected, but not treated [control for the infection—100 μL of DMSO per day, drug diluent]; (2) treated with NC884, NC901 or NC2459, but not infected with the parasites [control for drug toxicity]; (3) infected with the parasites and treated with amphotericin B (8 mg/kg/day) [reference drug; positive control]; and (4) infected with the parasites and treated with NC884, NC901 or NC2459 [experimental group]. Luciferase expressing metacyclic promastigotes L. major (Freidlin V1) were obtained as described previously. Suspensions of 1×10^5 or 1×10^6 parasites per 50 μl of sterile DMEM (endotoxin-free) were injected with a 30G needle into the left hind footpad of BALB/c mice. Two weeks post-infection the compounds were administered once a day by intraperitoneal route, daily for 14 to 17 days. Twice a week, weights were recorded to monitor toxicity and the thickness of the infected footpad and the non-infected footpad was measured with digital calipers to monitor the progression of the disease. The parasitic load also was evaluated through in vivo imaging using luminescence (Kodak Image Station). The mice were injected intra-peritoneally with 150 mg/kg D-luciferin (Sigma, USA) 10 min before imaging, anesthetized with 1-2% isofluorane in oxygen during imaging and the net intensity emitted from the footpad was quantified using the KODAK Image Station software. Parasite burden was expressed as net intensity emitted from L. major infected footpad lesions normalized against the background fluorescence of uninfected mice. The presence/absence of parasites was confirmed by PCR using L. major methionine aminopeptidase (MetAP1) 1 specific primers: 5′-[…]-3′ (SEQ ID NO:1) and 5′-[…]-3′ (SEQ ID NO:2) on cDNA reverse transcribed from total RNA extracted from footpad lysate obtained by macerating footpad tissue fragments in Trizol (Invitrogen Life Technologies, United States) with the gentleMACS™ Dissociator (Miltenyi Biotec GmbH, Germany) following the manufacturer's protocol.

T. cruzi epimastigotes = experiment: Viability assay (Alamar Blue) on T. cruzi epimastigotes; format: cell-based; details: Trypanosoma cruzi
Description: (§2) Viability assay on mammalian cells and T. cruzi epimastigotes. The cytotoxicity and anti-trypanosomal activity of the NC compounds was tested in human Hs27 fibroblasts (ATCC CRL-1634), LLC-MK2 cells (ATCC CCL-7), RAW 264.7 murine macrophages (ATCC TIB71) (American Type Culture Collection-ATCC, Manassa, Va.), mice intraperitoneal macrophages and in epimastigote forms of T. cruzi Y strain using Alamar Blue assay (Invitrogen—Life Technology, Grand Island, N.Y.). The experiments were performed as described using a range of concentration of 500 μM to 1 nM.

[2] = test system: BALB/c mice intraperitoneal macrophages; experiment: Annexin V/PI assay on intraperitoneal macrophages; format: cell-based, mouse
Description: (§3) Apoptosis was evaluated using Alexa Fluor® 488 Annexin V/PI Apoptosis Kit (Initrogen™-Life technology, Grand Island, N.Y.). L. major promastigotes and BALB/c mice intraperitoneal macrophages were treated with each compound for 24 h. After exposure, the parasites (5×10^7) and macrophages (5×10^6) were harvested, washed and re-suspended with PBS. The Annexin V/PI staining of cells followed the manufacturer's instructions. Then the samples were analyzed with Beckman Coulter Fc500 flow cytometer (Beckman Coulter, USA). The results were expressed as the number of annexin positive cells per thousand cells counted.

L. major promastigotes [3] = experiment: Mitoprobe JC-1 mitochondrial membrane potential assay; format: cell-based, Leishmania major; details: three concentrations, four hours
Description: L. major promastigotes and intraperitoneal macrophages from BALB/c mice were treated with each compound at three concentrations for four hours. Then, cells were stained with 2 μM of the fluorophore 5,5′,6,6′-tetrachloro-1,1′,3,3′-tetraethylbenzimidazolylcarboncyanine iodide (JC-1) following a modified version of manufacturer's instruction (Life Technologies, Grand Island, N.Y.). The disruption of mitochondrial Δψm is evidenced by an appreciable shift of the fluorescence signal from red to green. JC-1 aggregates or monomers, emitting red or green signal, were identified via flow cytometer (Cytomics Fc500) by using FL-2 or FL-1 detectors, respectively. A proton ionophore that dissipates the mitochondrial Δψm carbonyl cyanide 3-chlorophenylhydrazone (CCCP) at 50 μM, was used as a positive control. Cells treated with the diluent of the compounds (DMSO) and untreated were used as negative controls. Data collection and analysis was performed by using CXP software (Beckman Coulter). JC-1 is the most widely applied method for detecting mitochondrial depolarization occurring in the early stages of apoptosis.

[4] = target: lipoamide dehydrogenase (LipDH) also from T. cruzi (Trypanosoma cruzi, UniProt P90597); experiment: Lipoamide dehydrogenase inhibition; format: biochemical; details: preliminary, unpublished data
L. major promastigotes [5] = experiment: Annexin V/PI assay on L. major promastigotes; format: cell-based, Leishmania major; details: 24 h; NC901 2.5 μM, NC884 2.5 μM, NC2459 312 nM
Description: as §3

Hs27 human fibroblasts = experiment: Viability assay (Alamar Blue) on Hs27 fibroblasts; format: cell-based; details: read-out: Mammalian cells IC50 ± SD, Hs27 Fibroblasts
Description: Rhesus monkey kidney epithelial cell LLC-MK2 (American Type Culture Collection-ATCC, Manassas, Va. # CCL-7), Hs-27 human fibroblasts (American Type Culture Collection-ATCC, Manassas, Va.), RAW 264.7 murine macrophages (American Type Culture Collection-ATCC, Manassas, Va.) U2-09 human osteoblasts (American Type Culture Collection-ATCC, Manassas, Va. # HTB-99) (American Type Culture Collection-ATCC, Manassas, Va.) cells were cultured in Dulbecco's Modified Eagle's Medium (DMEM), supplemented with 10% inactivated FBS, along with 1% of 10,000 units/ml penicillin and 10 mg/ml streptomycin in 0.9% sodium chloride. Intraperitoneal BALB/c mice macrophages were obtained and cultured in DMEM high-glucose, +L-glu, supplemented with 10% FBS (inactivated). The procedure was performed minimizing the distress and pain for the animals following the NIH guidance and animal protocol approved by UTEP's Institutional Animal Care and Use Committee (IACUC).
as §2
The statistical significance (p-value) of the compound's cytotoxicity was calculated using the General Linear Mixed Model Analysis. This analysis was used to test the linear effect of the logarithm of dose on the logit transformation of the percent survival. The IC50 was obtained as the exponent of the negative ratio of the y-intercept and the slope of the fitted regression line (SAS Software, Version 9.2). […] All experiments had statistical significance determined at p≦0.05(*), p≦0.01(**), and p≦0.001(***).

[6] = Weight and toxicity monitoring in treated infected mice; format: in vivo, BALB/c mice; details: for deaths as a result of compound toxicity / weight loss: 10^5 infection experiment; for weight loss: daily IP treatment
Description: as §1

[7] = 96 h incubation, read-out: T. cruzi Epimastigotes EC50
[8] = 96 hour incubation, read-out: EC50, T. cruzi epimastigotes
[9] = same concentrations as in L. major promastigotes, 24 h

Chain of lipoamide dehydrogenase (LipDH) also from T. cruzi (P90597 whole entry): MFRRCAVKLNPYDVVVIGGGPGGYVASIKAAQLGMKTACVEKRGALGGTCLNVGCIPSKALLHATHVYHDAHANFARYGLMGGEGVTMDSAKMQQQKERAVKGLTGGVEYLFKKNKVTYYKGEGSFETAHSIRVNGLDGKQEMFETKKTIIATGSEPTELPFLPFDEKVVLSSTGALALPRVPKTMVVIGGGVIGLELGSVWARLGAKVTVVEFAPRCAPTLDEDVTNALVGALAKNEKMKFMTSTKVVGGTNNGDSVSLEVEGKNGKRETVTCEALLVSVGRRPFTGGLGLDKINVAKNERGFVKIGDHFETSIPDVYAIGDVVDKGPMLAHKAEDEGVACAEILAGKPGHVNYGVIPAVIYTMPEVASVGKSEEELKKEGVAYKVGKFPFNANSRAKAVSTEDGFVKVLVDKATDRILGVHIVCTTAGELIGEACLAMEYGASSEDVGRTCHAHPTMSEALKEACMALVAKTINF

Compound | footpad swelling [1] | EC50 (T. cruzi epimastigotes; [7]) [µM] | EC50 (T. cruzi epimastigotes; [8]) [µM] | annexin V positive cells in macrophages [2, 9] | mitochondrial membrane potential (Δψm) vs 1% DMSO (L. major promastigotes [3]) | inhibition of lipoamide dehydrogenase [4] | annexin V binding (apoptosis-like effect) vs 1% DMSO (L. major promastigotes [5]) | IC50 (Hs27 human fibroblasts) [µM] | deaths as a result of compound toxicity [6] | weight loss [6] | annexin V positive cells in macrophages [2] | time until measurable lesions start developing ([1]; 10^5 parasites) | mice never developing a lesion ([1]; 10^5 parasites, monitored up to twelve weeks post-infection) | lesion size at 33 days post-infection ([1]; 10^6 parasites, 8 mg/kg/day extended treatment, p≦0.05) | PCR of L. major MetAP1 gene in footpad ([1]; mouse displaying no lesion) | additional weight loss or toxic side effects compared to the control group ([6]; 10^6 infection, 8 mg/kg/day extended treatment)
CN(C)CC1CCC(CN(C)C)C1=O (stereo not shown) [NC884] | reduced the footpad swelling similar to that of the positive control | 0.475 | 0.475 | No effect | concentration dependent loss in Δψm | time-dependent irreversible inhibition | significantly induced an apoptosis-like effect | 16.3 ± 0.17 | no mice died | no significant weight loss | – | – | – | – | – | –
CN(C)CC1CCCC(CN(C)C)C1=O (stereo not shown) [NC901] | reduced the footpad swelling similar to that of the positive control | 0.468 | 0.468 | – | concentration dependent loss in Δψm | time-dependent irreversible inhibition | significantly induced an apoptosis-like effect | 16 ± 0.12 | no mice died | no significant weight loss | No effect | – | – | – | – | –
O=C1/C(=C/c2ccccc2)CN(C(=O)C(=O)N2C/C(=C\c3ccccc3)C(=O)/C(=C/c3ccccc3)C2)C/C1=C\c1ccccc1 [NC2459] | much lower amount of swelling than all groups | 0.02 | 0.02 | No effect | concentration dependent loss in Δψm | – | significantly induced an apoptosis-like effect | 10.01 ± 0.09 | no mice died | no significant weight loss | – | 6-7 weeks post-infection | one out of the three mice never developed a lesion | significantly smaller lesion than all other groups | no traces of L. major genomic DNA | did not result in any additional weight loss or toxic side effects
